Test system: 521955-158-R2-J5-PDC complex spheroid viability
Assay: Anticancer human tumor 521955-158-R2-J5-PDC patient-derived pancreatic carcinoma cell line growth inhibition [GQUAD]
Conditions: for IC50: curve of first compound; for viability, T/C: stronger effect = lower value; active = viability on the fitted dose curve at most 10% of control; inactive = the rest
In short: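 Viability of tumor cells grown as complex spheroids with endothelial and stromal cells, exposed to drug combinations. Top concentration at or near clinical Cmax (else 10 microM), diluted in half-log increments.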

[1] = second compound 0.0316 µM, first compound 0.0316 µM
[2] = second compound 0.0316 µM, first compound 0.1 µM
[3] = second compound 0.0316 µM, first compound 0.316 µM
[4] = second compound 0.0316 µM, first compound 1 µM
[5] = second compound 0.0316 µM, first compound 3.16 µM
[6] = second compound 0.0316 µM, first compound 10 µM
[7] = second compound 0.1 µM, first compound 0.0316 µM
[8] = second compound 0.1 µM, first compound 0.1 µM
[9] = second compound 0.1 µM, first compound 0.316 µM
[10] = second compound 0.1 µM, first compound 1 µM
[11] = second compound 0.1 µM, first compound 3.16 µM
[12] = second compound 0.1 µM, first compound 10 µM
[13] = second compound 0.316 µM, first compound 0.0316 µM
[14] = second compound 0.316 µM, first compound 0.1 µM
[15] = second compound 0.316 µM, first compound 0.316 µM
[16] = second compound 0.316 µM, first compound 1 µM
[17] = second compound 0.316 µM, first compound 3.16 µM
[18] = second compound 0.316 µM, first compound 10 µM
[19] = second compound 1 µM, first compound 0.0316 µM
[20] = second compound 1 µM, first compound 0.1 µM
[21] = second compound 1 µM, first compound 0.316 µM
[22] = second compound 1 µM, first compound 1 µM
[23] = second compound 1 µM, first compound 3.16 µM
[24] = second compound 1 µM, first compound 10 µM
[25] = second compound 3.16 µM, first compound 0.0316 µM
[26] = second compound 3.16 µM, first compound 0.1 µM
[27] = second compound 3.16 µM, first compound 0.316 µM
[28] = second compound 3.16 µM, first compound 1 µM
[29] = second compound 3.16 µM, first compound 3.16 µM
[30] = second compound 3.16 µM, first compound 10 µM
[31] = second compound 10 µM, first compound 0.0316 µM
[32] = second compound 10 µM, first compound 0.1 µM
[33] = second compound 10 µM, first compound 0.316 µM
[34] = second compound 10 µM, first compound 1 µM
[35] = second compound 10 µM, first compound 3.16 µM
[36] = second compound 10 µM, first compound 10 µM
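Note: spheroids exposed to agents for one week before reading.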
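Throughout, for viability, T/C: 100% = DMSO vehicle control viability.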

Cc1cccc(N(C)C(=O)C2C(O)CCN2c2nc(C)cc(C(F)(F)F)c2C#N)c1 (stereo not drawn) + Cc1cnc(CNC(=O)c2c(=O)c3ccc(N4CCCN(C)CC4)nc3n3c2sc2ccccc23)cn1
< 31.6 nM: IC50 (second compound 0.316 µM) | IC50 (second compound 1 µM) | IC50 (second compound 3.16 µM) | IC50 (second compound 10 µM)
> 10000 nM: IC50 (second compound 0.0316 µM) | IC50 (second compound 0.1 µM)
inactive: viability, T/C [1] 96.8% | viability, T/C [2] 75% | viability, T/C [3] 92.8% | viability, T/C [4] 78.9% | viability, T/C [5] 101% | viability, T/C [6] 89.6% | viability, T/C [7] 54.9% | viability, T/C [8] 66.2% | viability, T/C [9] 71.5% | viability, T/C [10] 62.2% | viability, T/C [11] 88.7% | viability, T/C [12] 74.6% | viability, T/C [13] 43.7% | viability, T/C [14] 49.9% | viability, T/C [15] 40.9% | viability, T/C [16] 43.7% | viability, T/C [17] 46.5% | viability, T/C [18] 38.2% | viability, T/C [19] 23.6% | viability, T/C [20] 22.5% | viability, T/C [21] 22.7% | viability, T/C [22] 24.4% | viability, T/C [23] 20.9% | viability, T/C [24] 22.9% | viability, T/C [25] 19.1% | viability, T/C [26] 22.3% | viability, T/C [27] 19.8% | viability, T/C [28] 22.8% | viability, T/C [29] 20.6% | viability, T/C [30] 20.1% | viability, T/C [31] 20.7% | viability, T/C [32] 19.2% | viability, T/C [33] 21.5% | viability, T/C [34] 20.2% | viability, T/C [35] 24.7% | viability, T/C [36] 20.2%

C=CCn1c(=O)c2cnc(Nc3ccc(N4CCN(C)CC4)cc3)nc2n1-c1cccc(C(C)(C)O)n1 + Cc1cnc(CNC(=O)c2c(=O)c3ccc(N4CCCN(C)CC4)nc3n3c2sc2ccccc23)cn1
inactive: viability, T/C [1] 67% | viability, T/C [2] 44.9% | viability, T/C [3] 19.5% | viability, T/C [4] 10% | viability, T/C [7] 53.5% | viability, T/C [8] 56% | viability, T/C [9] 30.3% | viability, T/C [10] 17.6% | viability, T/C [11] 13.1% | viability, T/C [12] 11.6% | viability, T/C [13] 35.1% | viability, T/C [14] 45.4% | viability, T/C [15] 28.4% | viability, T/C [16] 20.1% | viability, T/C [17] 15.9% | viability, T/C [18] 11.2% | viability, T/C [19] 17.4% | viability, T/C [20] 19.6% | viability, T/C [21] 21.1% | viability, T/C [22] 17.7% | viability, T/C [23] 14.3% | viability, T/C [24] 10.1% | viability, T/C [25] 13.3% | viability, T/C [26] 16.3% | viability, T/C [27] 17.8% | viability, T/C [28] 11.6% | viability, T/C [31] 11.6% | viability, T/C [32] 15% | viability, T/C [33] 15.4%
124 nM: IC50 (second compound 0.1 µM)
77.1 nM: IC50 (second compound 0.0316 µM)
active: viability, T/C [5] 7.12% | viability, T/C [6] 11.2% | viability, T/C [29] 11.7% | viability, T/C [30] 2.19% | viability, T/C [34] 8.4% | viability, T/C [35] 0.28% | viability, T/C [36] 0.23%
< 31.6 nM: IC50 (second compound 0.316 µM) | IC50 (second compound 1 µM) | IC50 (second compound 3.16 µM) | IC50 (second compound 10 µM)

CC(C)n1c(=O)n(C)c2cnc3cc(F)c(-c4ccc(OCCCN5CCCCC5)nc4)cc3c21 + CN(C)c1ccc(Nc2c3ccc(NC(=O)CCN4CCCC4)cc3nc3cc(NC(=O)CCN4CCCC4)ccc23)cc1
active: viability, T/C [36] 5.89%
288 nM: IC50 (second compound 10 µM)
8350 nM: IC50 (second compound 3.16 µM)
inactive: viability, T/C [1] 117% | viability, T/C [2] 108% | viability, T/C [3] 110% | viability, T/C [4] 93.5% | viability, T/C [5] 115% | viability, T/C [6] 109% | viability, T/C [7] 98.6% | viability, T/C [8] 105% | viability, T/C [9] 101% | viability, T/C [10] 95.3% | viability, T/C [11] 116% | viability, T/C [12] 106% | viability, T/C [13] 101% | viability, T/C [14] 103% | viability, T/C [15] 91% | viability, T/C [16] 107% | viability, T/C [17] 115% | viability, T/C [18] 85.2% | viability, T/C [19] 112% | viability, T/C [20] 90.2% | viability, T/C [21] 77% | viability, T/C [22] 96.8% | viability, T/C [23] 97.5% | viability, T/C [24] 86% | viability, T/C [25] 101% | viability, T/C [26] 81% | viability, T/C [27] 63.6% | viability, T/C [28] 63.7% | viability, T/C [29] 55.1% | viability, T/C [30] 46.7% | viability, T/C [31] 64% | viability, T/C [32] 57% | viability, T/C [33] 51.2% | viability, T/C [34] 34.8% | viability, T/C [35] 22%
> 10000 nM: IC50 (second compound 0.0316 µM) | IC50 (second compound 0.1 µM) | IC50 (second compound 0.316 µM) | IC50 (second compound 1 µM)

CC1COCCN1c1cc(C2(O)CC3CCC(C2)O3)c2cnn(-c3ccn[nH]3)c2n1 (stereo not drawn) + CN(C)c1ccc(Nc2c3ccc(NC(=O)CCN4CCCC4)cc3nc3cc(NC(=O)CCN4CCCC4)ccc23)cc1
36.1 nM: IC50 (second compound 1 µM)
inactive: viability, T/C [1] 60.7% | viability, T/C [2] 20.8% | viability, T/C [3] 22.1% | viability, T/C [4] 27.8% | viability, T/C [5] 32.3% | viability, T/C [6] 20.1% | viability, T/C [7] 52.4% | viability, T/C [8] 18.3% | viability, T/C [9] 24% | viability, T/C [10] 26.1% | viability, T/C [11] 32.9% | viability, T/C [12] 19.2% | viability, T/C [13] 50.1% | viability, T/C [14] 20.1% | viability, T/C [15] 23.8% | viability, T/C [16] 31.3% | viability, T/C [17] 31.9% | viability, T/C [18] 19.6% | viability, T/C [19] 53.5% | viability, T/C [20] 17.6% | viability, T/C [21] 17.9% | viability, T/C [22] 26.4% | viability, T/C [23] 37.4% | viability, T/C [24] 14.2% | viability, T/C [25] 47% | viability, T/C [26] 21.5% | viability, T/C [27] 18.9% | viability, T/C [28] 27.6% | viability, T/C [29] 34.1% | viability, T/C [30] 17.2% | viability, T/C [31] 49.3% | viability, T/C [32] 30.1% | viability, T/C [33] 27.9% | viability, T/C [34] 25.3% | viability, T/C [35] 28.4% | viability, T/C [36] 13.3%
< 31.6 nM: IC50 (second compound 3.16 µM) | IC50 (second compound 10 µM)
44.6 nM: IC50 (second compound 0.0316 µM)
31.6 nM: IC50 (second compound 0.316 µM)
35.1 nM: IC50 (second compound 0.1 µM)
